Patent US11613547B2 (priority 2019, dated 2023)
Several values for one entry are separate records, joined by “and”; a condition that tells them apart may be missing. Equal values may be shown once. Read-outs that look alike come from different tables or passages of the source.

Experiments:
[1] = target: T1, rat kappa opioid receptor (rKOR) (Rattus norvegicus, UniProt P34975); experiment: BRET assay, arrestin recruitment, rKOR; assay type: cell-based; settings: for Arrestin pEC50±SEM rKOR / EC50 / Arrestin Emax rKOR: BRET; for Arrestin Emax rKOR: normalized to Emax of U50,488H
T1 construct: expressed in transfected cells; host or cells: HEK-293T, transient (PEI), with BRET sensor cDNAs

mKOR [2] = target: T2, mKOR (Mus musculus, UniProt P33534); experiment: [35S]GTPγS functional assay, mKOR; assay type: biochemical; settings: for EC50 / mKOR Emax: [35S]GTPγS; for EC50: nM ± SEM; for mKOR Emax: relative to U50,488H
T2 construct: expressed in transfected cells

[3] = target: T3, mouse mu opioid receptor (mMOR) (Mus musculus, UniProt P42866); experiment: cell-based; assay type: cell-based; settings: for EC50: read-out: Arrestin EC50 mMOR
T3 construct: expressed in transfected cells; host or cells: HEK-293T, transient (PEI), with BRET sensor cDNAs

mDOR [4] = target: T4, mDOR (Mus musculus, UniProt P32300); experiment: [35S]GTPγS functional assay, mDOR; assay type: biochemical; settings: for EC50 / mDOR Emax: [35S]GTPγS; for EC50: nM ± SEM; for mDOR Emax: relative to DPDPE
T4 construct: expressed in transfected cells

[5] = target: T5, mouse delta opioid receptor (mDOR) (Mus musculus, UniProt P32300); experiment: BRET assay, G-protein activation, mDOR; assay type: cell-based; settings: for EC50 / G-Protein activation pEC50 ± SEM / G-Protein activation Emax % ± SEM: mDOR, BRET; for G-Protein activation Emax % ± SEM: normalized to DPDPE
T5 construct: expressed in transfected cells; host or cells: HEK-293T, transient (PEI), with BRET sensor cDNAs

mKOR [6] = target: T2, mKOR; experiment: Radioligand competition binding ([125I]IBNtxA), CHO membranes, mKOR; settings: vs 125IBNtxA (0.1 nM), mean ± SEM
[7] = target: T1, rat kappa opioid receptor (rKOR); experiment: BRET assay, G-protein activation, rKOR; assay type: cell-based; settings: for Gi pEC50±SEM rKOR / Gi Emax rKOR / EC50: BRET; for Bias factor toward G-protein, rKOR: BRET assays, against U50,488H as control; for Gi Emax rKOR: normalized to Emax of U50,488H; for EC50: read-out: Gi EC50 rKOR
hKOR [8] = target: T6, hKOR (Homo sapiens, UniProt P41145); experiment: cAMP inhibition assay (GloSensor, HEK 293T), hKOR; assay type: cell-based; settings: for Gi pEC50±SEM hKOR / Gi Emax hKOR / EC50: cAMP inhibition; for Bias factor toward G protein, hKOR: cAMP inhibition vs Tango, against U50,488H as control; for Gi Emax hKOR: normalized to Emax of U50,488H; for EC50: read-out: Gi EC50 hKOR
T6 construct: expressed in transfected cells; host or cells: HEK 293T (ATCC CRL-11268), transient

mMOR [9] = target: T7, mMOR (Mus musculus, UniProt P42866); experiment: Radioligand competition binding ([125I]IBNtxA), CHO membranes, mMOR; settings: vs 125IBNtxA (0.1 nM), mean ± SEM
T7 construct: expressed in transfected cells

hMOR [10] = target: T8, hMOR (Homo sapiens, UniProt P35372); experiment: cell-based; assay type: cell-based; settings: for EC50: read-out: Gi EC50 hMOR
T8 construct: expressed in transfected cells; host or cells: HEK 293T (ATCC CRL-11268), transient

hKOR [11] = target: T6, hKOR; experiment: Tango β-arrestin recruitment assay, hKOR; assay type: cell-based; settings: for Arrestin pEC50±SEM hKOR / EC50 / Arrestin Emax hKOR: Tango; for Arrestin pEC50±SEM hKOR / EC50: WT-hKOR; for Arrestin Emax hKOR: normalized to Emax of U50,488H
[12] = target: T5, mouse delta opioid receptor (mDOR); experiment: BRET assay, arrestin recruitment, mDOR; assay type: cell-based; settings: for Arrestin recruitment pEC50 ± SEM / EC50 / Arrestin recruitment Emax % ± SEM: mDOR, BRET; for Arrestin recruitment Emax % ± SEM: normalized to DPDPE
[13] = target: T3, mouse mu opioid receptor (mMOR); experiment: cell-based; assay type: cell-based; settings: for EC50: read-out: Gi EC50 mMOR
mMOR [14] = target: T7, mMOR; experiment: [35S]GTPγS functional assay, mMOR; assay type: biochemical; settings: for EC50 / mMOR Emax: [35S]GTPγS; for EC50: nM ± SEM; for mMOR Emax: relative to DAMGO
mDOR [15] = target: T4, mDOR; experiment: Radioligand competition binding ([125I]IBNtxA), CHO membranes, mDOR; settings: vs 125IBNtxA (0.1 nM), CHO membranes, mean ± SEM
hDOR [16] = target: T9, hDOR (Homo sapiens, UniProt P41143); experiment: Tango β-arrestin recruitment assay, hDOR; assay type: cell-based; set-up: expressed in transfected cells; host or cells: HTLA cells expressing TEV fused-beta-Arrestin2; settings: for Arrestin recruitment pEC50 ± SEM / EC50 / Arrestin recruitment Emax % ± SEM: hDOR, Tango; for Arrestin recruitment Emax % ± SEM: normalized to DPDPE or DADLE
hMOR [17] = target: T8, hMOR; experiment: Tango β-arrestin recruitment assay, hMOR; assay type: cell-based; settings: for Arrestin pEC50±SEM hMOR / EC50 / Arrestin Emax hMOR: Tango; for Arrestin Emax hMOR: normalized to Emax of DAMGO
hDOR [18] = target: T9, hDOR; experiment: cAMP inhibition assay, hDOR; assay type: cell-based; set-up: expressed in transfected cells; settings: for EC50 / cAMP inhibition pEC50 ± SEM / cAMP inhibition Emax % ± SEM: hDOR; for cAMP inhibition Emax % ± SEM: normalized to DPDPE or DADLE
[19] = read-out: Arrestin recruitment Emax % ± SEM

## O=C(N[C@@H]1C=CC2[C@H]3Cc4ccc(O)c5c4[C@@]2(CCN3CC2CC2)[C@H]1O5)c1cccc(I)c1 (stereo partly drawn) [MP1104, reference compound]
[1]
  Arrestin pEC50±SEM rKOR: 8.94±0.07
  EC50: 1.14 nM
  Arrestin Emax rKOR: 89±2.6
mKOR [2]
  EC50: 0.027 ± 0.002 nM
  mKOR Emax: 104 ± 2%
[3]
  Arrestin Emax mMOR: 53±1.6
  Arrestin pEC50±SEM mMOR: 9.55±0.12
  EC50: 0.285 nM
mDOR [4]
  EC50: 0.41 ± 0.11 nM
  mDOR Emax: 88 ± 0%
[5]
  EC50: 1.4 nM
  G-Protein activation pEC50 ± SEM: 8.9 ± 0.06
  G-Protein activation Emax % ± SEM: 91 ± 1.7%
mKOR [6]
  Ki: 0.0064 nM
[7]
  Gi pEC50±SEM rKOR: 10.14±0.04
  Bias factor toward G-protein, rKOR: 0.23
  Gi Emax rKOR: 93±1
  EC50: 0.073 nM
hKOR [8]
  Gi pEC50±SEM hKOR: 11.74±0.04
  Bias factor toward G protein, hKOR: 0.18 and 0.2
  Gi Emax hKOR: 107±1
  EC50: 0.00184 nM
mMOR [9]
  Ki: 0.021 nM
hMOR [10]
  Bias factor toward G protein, hMOR: 0.57 and 0.6
  Gi Emax hMOR: 94±1
  Gi pEC50±SEM hMOR: 10.13±0.05
  EC50: 0.074 nM
hKOR [11]
  Arrestin pEC50±SEM hKOR: 10.4±0.06
  EC50: 0.0394 nM
  Arrestin Emax hKOR: 117±2
[12]
  Arrestin recruitment pEC50 ± SEM: 7.6 ± 0.11
  EC50: 26 nM
  Arrestin recruitment Emax % ± SEM: 40 ± 1.7%
[13]
  Bias factor toward G-protein, mMOR: 0.1
  Gi Emax mMOR: 62±2
  Gi pEC50±SEM mMOR: 9.2±0.11
  EC50: 0.66 nM
mMOR [14]
  EC50: 0.21 ± 0.03 nM
  mMOR Emax: 103 ± 2%
mDOR [15]
  Ki: 0.08 ± 0.01 nM
hDOR [16]
  Arrestin recruitment pEC50 ± SEM: 8.4 ± 0.06
  EC50: 3.73 nM
  Arrestin recruitment Emax % ± SEM: 189 ± 5.5%
hMOR [17]
  Arrestin pEC50±SEM hMOR: 9.24±0.08
  EC50: 0.573 nM
  Arrestin Emax hMOR: 90±2.28
hDOR [18]
  EC50: 0.4 nM
  cAMP inhibition pEC50 ± SEM: 9.4 ± 0.04
  cAMP inhibition Emax % ± SEM: 99 ± 1.1%

## O=C(N[C@@H]1CC[C@@]2(O)[C@H]3Cc4ccc(O)c5c4[C@@]2(CCN3CC2CC2)[C@H]1O5)c1cccc(I)c1 [IBNtxA, reference compound]
[1]
  Arrestin pEC50±SEM rKOR: 8.9±0.02
  EC50: 1.23 nM
  Arrestin Emax rKOR: 133±7.3
mKOR [2]
  EC50: 0.22 ± 0.02 nM
  mKOR Emax: 102 ± 4%
[3]
  Arrestin Emax mMOR: 75±13.9
  Arrestin pEC50±SEM mMOR: 4.9±0.3
  EC50: 11300 nM
mDOR [4]
  EC50: 4.08 ± 0.67 nM
  mDOR Emax: 95 ± 2%
[5]
  EC50: 0.48 nM
  G-Protein activation pEC50 ± SEM: 9.3 ± 0.10
  G-Protein activation Emax % ± SEM: 108 ± 3.7%
mKOR [6]
  Ki: 0.03 ± 0.001 nM
[7]
  Gi pEC50±SEM rKOR: 10.2±0.1
  Bias factor toward G-protein, rKOR: 0.6
  Gi Emax rKOR: 101±2.3
  EC50: 0.064 nM
hKOR [8]
  Bias factor toward G protein, hKOR: 0.2
  Gi Emax hKOR: 106±0.7
mMOR [9]
  Ki: 0.11 ± 0.02 nM
hMOR [10]
  Bias factor toward G protein, hMOR: 23
  Gi Emax hMOR: 95±2
  Gi pEC50±SEM hMOR: 10.2±0.006
  EC50: 0.07 nM
hKOR [11]
  Arrestin pEC50±SEM hKOR: 10.9±0.07
  EC50: 0.013 nM
  Arrestin Emax hKOR: 109±1.8
[12]
  Arrestin recruitment pEC50 ± SEM: 7.5 ± 0.2
  EC50: 26.6 nM
  Arrestin recruitment Emax % ± SEM: 88 ± 6.8%
[13]
  Bias factor toward G-protein, mMOR: 404
  Gi Emax mMOR: 59±2.2
  Gi pEC50±SEM mMOR: 10.3±0.02
  EC50: 0.054 nM
mMOR [14]
  EC50: 0.49 ± 0.12 nM
  mMOR Emax: 101 ± 3%
mDOR [15]
  Ki: 0.24 ± 0.05 nM
hDOR [16]
  Arrestin recruitment pEC50 ± SEM: 7.8 ± 0.06
  EC50: 14.1 nM
  Arrestin recruitment Emax % ± SEM: 224 ± 5%
hMOR [17]
  Arrestin pEC50±SEM hMOR: 8.2±0.002
  EC50: 5.86 nM
  Arrestin Emax hMOR: 29±0.02
hDOR [18]
  EC50: 0.43 nM
  cAMP inhibition pEC50 ± SEM: 9.3 ± 0.03
  cAMP inhibition Emax % ± SEM: 106 ± 1%

## O=C(N[C@@H]1CC[C@@]2(O)C3Cc4ccc(O)cc4[C@@]2(CCN3CC2CC2)C1)c1cccc(I)c1 [MP1601, N-((4bR,6R,8aS)-11-(Cyclopropylmethyl)-3,8a-dihydroxy-6,7,8,8a,9,10-hexahydro-5H-9,4b-(epiminoethano)phenanthren-6-yl)-3-iodobenzamide]
[1]
  Emax: 37 ± 3%
  Arrestin pEC50±SEM rKOR: 7.2±0.23
  EC50: 56.5 nM
mKOR [2]
  Emax: 72 ± 4.5%
  EC50: 3 ± 0.7 nM
[3]
  arrestin recruitment at mMOR: no arrestin recruitment was observed
mDOR [4]
  Emax: 67 ± 3.9%
  EC50: 10 ± 1.6 nM
[5]
  G-Protein activation pEC50 ± SEM: 8.2 ± 0.20
[5]; read-out: G-Protein activation Emax % ± SEM
  Emax: 105 ± 6.7%
mKOR [6]
  Ki: 2.13 ± 0.3 nM
[7]
  Gi pEC50±SEM rKOR: 8.1±0.12
  Bias factor toward G-protein, rKOR: 0.9
  EC50: 8.9 nM
[7]; read-out: Gi Emax rKOR
  Emax: 75 ± 3%
hKOR [8]; HEK-293T, read-out: Gi Emax hKOR
  Emax: 109 ± 1%
hKOR [8]
  Gi pEC50±SEM hKOR: 9.76±0.05
  Bias factor toward G protein, hKOR: 0.15
  EC50: 0.17 nM
mMOR [9]
  Ki: 0.2 ± 0.01 nM
hMOR [10]
  Bias factor toward G protein, hMOR: 4
  Gi pEC50±SEM hMOR: 9.99±0.09
  EC50: 0.1 nM
hMOR [10]; HEK-293T, read-out: Gi Emax hMOR
  Emax: 69 ± 1%
hKOR [11]
  Emax: 107 ± 3%
  Arrestin pEC50±SEM hKOR: 8.49±0.07
[12]
  EC50: 9 nM
[12]; [19]
  Emax: 16 ± 1.4%
[13]
  Gi pEC50±SEM mMOR: 8.6±0.3
  EC50: 2.2 nM
[13]; read-out: Gi Emax mMOR
  Emax: 49 ± 3%
mMOR [14]
  Emax: 45 ± 4.6%
  EC50: 0.5 ± 0.2 nM
mDOR [15]
  Ki: 5.37 ± 0.9 nM
hDOR [16]
  Arrestin recruitment pEC50 ± SEM: 7.1 ± 0.06
  EC50: 86.7 nM
hDOR [16]; [19]
  Emax: 203 ± 5.4%
hMOR [17]
  Emax: 27 ± 2%
  Arrestin pEC50±SEM hMOR: 8.4±0.2
hDOR [18]
  EC50: 2.76 nM
  cAMP inhibition pEC50 ± SEM: 8.6 ± 0.06
hDOR [18]; read-out: cAMP inhibition Emax % ± SEM
  Emax: 106 ± 2.3%
